According to patent US12285407B2, “Bis-indolylmethane derivatives and uses thereof” (The University of The West Indies, priority 2018, dated 2025):

Legend:
Streptococcus pneumoniae [1] = experiment: Adjuvant broth microdilution (antibiotic MIC with SP-BIM at 50 μg/mL); type: cell-based; settings: Streptococcus pneumoniae, read-out: MIC of antibiotic, No compound
Escherichia coli [2] = experiment: microbe, parasite or virus in culture; type: cell-based; settings: read-out: MIC of antibiotic, No compound
Escherichia coli O157:H7 = type: cell-based; settings: antibiotic alone, no SP-BIM
Staphylococcus aureus = experiment: Checkerboard synergy (FICI) of antibiotics with SP-BIM; type: cell-based; settings: Staphylococcus aureus
Streptococcus pneumoniae [3] = experiment: as above; type: cell-based
Bacillus cereus = experiment: as above; type: cell-based
Enterococcus faecium = experiment: as above; type: cell-based; settings: Enterococcus faecium
Klebsiella pneumoniae = experiment: as above; type: cell-based
[4] = system: clinical strains of Enterococcus faecium; experiment: Kirby Bauer disc diffusion susceptibility profile; type: cell-based; settings: for Zone of clearance: 35° C., 24 hours, average n=3; for Interpretive standard (resistant/susceptible): zones vs EUCAST breakpoints (Table 31)
Escherichia coli [5] = experiment: Checkerboard synergy (FICI) of antibiotics with SP-BIM; set-up: MIC SP-BIM 13 only / MIC in combination: Antibiotic: unit not given beside the values
Candida albicans = experiment: as above; set-up: MIC SP-BIM 13 only / MIC in combination: Antibiotic / MIC antibiotic only: unit not given beside the values
[6] = 24 h, read-out: MIC antibiotic only
[7] = SP-BIM 9 in combination with the labelled antibiotic
[8] = SP-BIM 13 in combination with the labelled antibiotic
[9] = antibiotic alone, SP-BIM 13 checkerboard
[10] = antibiotic in combination with SP-BIM 9
[11] = antibiotic in combination with SP-BIM 13
[12] = Streptococcus pneumonia (title: Streptococcus pyogenes), antibiotic + SP-BIM 9
[13] = Streptococcus pneumoniae, antibiotic + SP-BIM 13
[14] = MIC of the antibiotic in combination with SP-BIM 13

CN[C@H](CC(C)C)C(=O)N[C@H]1C(=O)N[C@@H](CC(N)=O)C(=O)N[C@H]2C(=O)N[C@H]3C(=O)N[C@H](C(=O)N[C@H](C(=O)O)c4cc(O)cc(O)c4-c4cc3ccc4O)[C@H](O)c3ccc(c(Cl)c3)Oc3cc2cc(c3O[C@@H]2O[C@H](CO)[C@@H](O)[C@H](O)[C@H]2O[C@H]2C[C@](C)(N)[C@H](O)[C@H](C)O2)Oc2ccc(cc2Cl)[C@H]1O [Vancomycin, vancomycin]
MIC (Streptococcus pneumoniae [1]): 1 µg/mL | MIC (Escherichia coli [2]): 125 µg/mL | MIC of antibiotic, No Compound (Escherichia coli O157:H7): 250 µg/mL | MIC (Staphylococcus aureus; [6]): 2 µg/mL | FIC of SP-BIM 9 (Staphylococcus aureus; [7]): 0.02 | FIC of SP-BIM 13 (Staphylococcus aureus; [8]): 0.3 | Interpretation (Staphylococcus aureus; antibiotic + SP-BIM 9): Synergy (Synergy: FICI≤0.5) | Σ FIC (Staphylococcus aureus; antibiotic + SP-BIM 9): <0.27 | Interpretation (Staphylococcus aureus; antibiotic + SP-BIM 13): Synergy (Synergy: FICI≤0.5) | Σ FIC (Staphylococcus aureus; antibiotic + SP-BIM 13): 0.4 | MIC antibiotic only (Staphylococcus aureus; [9]): 2 µg/mL | MIC in combination, Antibiotic (Staphylococcus aureus; [10]): 0.5 µg/mL | MIC in combination, Antibiotic (Staphylococcus aureus; [11]): 0.25 µg/mL | FIC of antibiotic (Staphylococcus aureus; in combination with SP-BIM 9): 0.25 | FIC of antibiotic (Staphylococcus aureus; in combination with SP-BIM 13): 0.1 | FIC of SP-BIM 9 (Streptococcus pneumoniae [3]; Streptococcus pneumonia (title: Streptococcus pyogenes), SP-BIM 9 in combination with the labelled antibiotic): 0.26 | Interpretation (Streptococcus pneumoniae [3]; [12]): Synergy (Synergy: FICI≤0.5) | Σ FIC (Streptococcus pneumoniae [3]; [12]): <0.36 | MIC in combination, Antibiotic (Streptococcus pneumoniae [3]; Streptococcus pneumonia (title: Streptococcus pyogenes), antibiotic in combination with SP-BIM 9): 0.2 µg/mL | FIC of antibiotic (Streptococcus pneumoniae [3]; Streptococcus pneumonia (title: Streptococcus pyogenes), in combination with SP-BIM 9): 0.10 | MIC (Streptococcus pneumoniae [3]; Streptococcus pneumoniae, 24 h, read-out: MIC antibiotic only): 2 µg/mL | FIC of SP-BIM 13 (Streptococcus pneumoniae [3]; Streptococcus pneumoniae, SP-BIM 13 in combination with the labelled antibiotic): 0.1 | Interpretation (Streptococcus pneumoniae [3]; [13]): Synergy (Synergy: FICI≤0.5) | Σ FIC (Streptococcus pneumoniae [3]; [13]): 0.3 | MIC antibiotic only (Streptococcus pneumoniae [3]; Streptococcus pneumoniae, antibiotic alone, SP-BIM 13 checkerboard): 2 µg/mL | MIC in combination, Antibiotic (Streptococcus pneumoniae [3]; Streptococcus pneumoniae, antibiotic in combination with SP-BIM 13): 0.5 µg/mL | FIC of antibiotic (Streptococcus pneumoniae [3]; Streptococcus pneumoniae, in combination with SP-BIM 13): 0.3 | MIC (Bacillus cereus; [6]): 2 µg/mL | FIC of SP-BIM 13 (Bacillus cereus; [8]): 0.0 | Interpretation (Bacillus cereus; antibiotic + SP-BIM 13): Synergy (Synergy: FICI≤0.5) | Σ FIC (Bacillus cereus; antibiotic + SP-BIM 13): 0.1 | MIC antibiotic only (Bacillus cereus; [9]): 2 µg/mL | MIC in combination, Antibiotic (Bacillus cereus; [11]): 0.25 µg/mL | FIC of antibiotic (Bacillus cereus; in combination with SP-BIM 13): 0.13 | MIC (Enterococcus faecium; [6]): 16 µg/mL | MIC in combination, SP-BIM 9 (Enterococcus faecium; SP-BIM 9 concentration in combination with the labelled antibiotic): 64 µg/mL | FIC of SP-BIM 9 (Enterococcus faecium; [7]): 0.3 | FIC of SP-BIM 13 (Enterococcus faecium; [8]): 0.5 | Interpretation (Enterococcus faecium; antibiotic + SP-BIM 9): Synergy (Synergy: FICI≤0.5) | Σ FIC (Enterococcus faecium; antibiotic + SP-BIM 9): ≤0.31 | Interpretation (Enterococcus faecium; antibiotic + SP-BIM 13): Additive (Additive: FICI>0.5-1.0) | Σ FIC (Enterococcus faecium; antibiotic + SP-BIM 13): <1.0 | MIC antibiotic only (Enterococcus faecium; [9]): 16 µg/mL | MIC in combination, Antibiotic (Enterococcus faecium; [10]): 0.2 µg/mL | MIC in combination, Antibiotic (Enterococcus faecium; [11]): 8 µg/mL | FIC of antibiotic (Enterococcus faecium; in combination with SP-BIM 9): 0.013 | FIC of antibiotic (Enterococcus faecium; in combination with SP-BIM 13): 0.5 | MIC (Klebsiella pneumoniae; [6]): 125 µg/mL | FIC of SP-BIM 9 (Klebsiella pneumoniae; [7]): 1 | FIC of SP-BIM 13 (Klebsiella pneumoniae; [8]): 1.0 | Interpretation (Klebsiella pneumoniae; antibiotic + SP-BIM 9): Indifferent (Indifferent: FICI>1.0-4.0) | Σ FIC (Klebsiella pneumoniae; antibiotic + SP-BIM 9): <2.0 | Interpretation (Klebsiella pneumoniae; antibiotic + SP-BIM 13): Indifferent (Indifferent: FICI>1.0-4.0) | Σ FIC (Klebsiella pneumoniae; antibiotic + SP-BIM 13): <2.0 | MIC antibiotic only (Klebsiella pneumoniae; [9]): 125 µg/mL | MIC in combination, Antibiotic (Klebsiella pneumoniae; [10]): 125 µg/mL | MIC in combination, Antibiotic (Klebsiella pneumoniae; [11]): 125 µg/mL | FIC of antibiotic (Klebsiella pneumoniae; in combination with SP-BIM 9): 1 | FIC of antibiotic (Klebsiella pneumoniae; in combination with SP-BIM 13): 1.0 | Zone of clearance ([4]; E. faecium strain 15134): 12 mm | Interpretive standard (resistant/susceptible) ([4]; E. faecium strain 15134): S | Zone of clearance ([4]; E. faecium strain 21024): 9 mm | Interpretive standard (resistant/susceptible) ([4]; E. faecium strain 21024): R | Zone of clearance ([4]; E. faecium strain 21955): 15 mm | Interpretive standard (resistant/susceptible) ([4]; E. faecium strain 21955): S | Zone of clearance ([4]; E. faecium strain 22003): 16 mm | Interpretive standard (resistant/susceptible) ([4]; E. faecium strain 22003): S | Zone of clearance ([4]; E. faecium strain 22870): 10 mm | Interpretive standard (resistant/susceptible) ([4]; E. faecium strain 22870): R | Zone of clearance ([4]; E. faecium strain 23227): 9 mm | Interpretive standard (resistant/susceptible) ([4]; E. faecium strain 23227): R | Zone of clearance ([4]; E. faecium strain 23230): 5 mm | Interpretive standard (resistant/susceptible) ([4]; E. faecium strain 23230): R | Zone of clearance ([4]; E. faecium strain 23668): 10 mm | Interpretive standard (resistant/susceptible) ([4]; E. faecium strain 23668): R | Zone of clearance ([4]; E. faecium strain 24169): 10 mm | Interpretive standard (resistant/susceptible) ([4]; E. faecium strain 24169): R | Zone of clearance ([4]; E. faecium strain RC63): 8 mm | Interpretive standard (resistant/susceptible) ([4]; E. faecium strain RC63): R | MIC (Escherichia coli [5]; [6]): 125 µg/mL | MIC in combination: Antibiotic (Escherichia coli [5]; [14]): 125 | FIC of SP-BIM 9 (Escherichia coli [5]; [7]): 1 | FIC of SP-BIM 13 (Escherichia coli [5]; [8]): 1.0 | Interpretation (Escherichia coli [5]; antibiotic + SP-BIM 9): Indifferent (Indifferent: FICI>1.0-4.0) | Σ FIC (Escherichia coli [5]; antibiotic + SP-BIM 9): <2.0 | Interpretation (Escherichia coli [5]; antibiotic + SP-BIM 13): Indifferent (Indifferent: FICI>1.0-4.0) | Σ FIC (Escherichia coli [5]; antibiotic + SP-BIM 13): <2.0 | MIC antibiotic only (Escherichia coli [5]; antibiotic alone): 125 | MIC in combination, Antibiotic (Escherichia coli [5]; [10]): 125 µg/mL | FIC of antibiotic (Escherichia coli [5]; combination with SP-BIM 13): 1.0 | FIC of antibiotic (Escherichia coli [5]; in combination with SP-BIM 9): 1 | MIC (Candida albicans; [6]): 16 µg/mL | MIC in combination: Antibiotic (Candida albicans; [14]): 8 | FIC of SP-BIM 13 (Candida albicans; [8]): 0.1 | Interpretation (Candida albicans; antibiotic + SP-BIM 13): Additive (Additive: FICI>0.5-1.0) | Σ FIC (Candida albicans; antibiotic + SP-BIM 13): <0.6 | FIC of antibiotic (Candida albicans; combination with SP-BIM 13): 0.5
